Results published in patent US6566349B1 (priority 2000, dated 2003).
Where two headings read alike, the source gives them in different places.

Experiments:
Bandedwinged Whitefly [1] = conditions: in vivo
Bandedwinged Whitefly [2] = conditions: in vivo; remark: listed apart in the source
Thrips = type: in vivo
Beet Armyworm [3] = experiment: Control of beet armyworm in cotton; type: in vivo, beet armyworm (Spodoptera exigua)
Tobacco Budworm = experiment: Tobacco budworm boll damage in cotton; type: in vivo, tobacco budworm (Heliothis virescens); conditions: 50 bolls, lb./A: chlorpyrifos + dimethoate 0.62, chlorpyrifos 0.50, Dash 2.0, control 45
Beet Armyworm [4] = experiment: Control of beet armyworm in sweet corn; type: in vivo, beet armyworm (Spodoptera exigua)
Fall Armyworm = experiment: Control of fall armyworm in sweet corn; type: in vivo, fall armyworm (S. fruqiperda)
[5] = tested on: cabbage looper (Trichoplasia ni); experiment: Control of cabbage pests in cabbage: cabbage looper; type: in vivo
[6] = tested on: diamondback moth (Plutella xylostelia); experiment: Control of cabbage pests in cabbage: diamondback moth; type: in vivo
[7] = tested on: imported cabbageworm (Pieris rapae); experiment: Control of cabbage pests in cabbage: imported cabbageworm; type: in vivo
cotton aphid [8] = type: in vivo
cotton aphid [9] = type: in vivo; conditions: for Cotton aphid count 2 days after treatment: 5 leaves per plot, untreated 1277; for Cotton aphid count 2 days after treatment / Cotton aphid % control 2 days after treatment: lb./A: methyl parathion 0.5, oxydemeton-methyl 0.25, Dash 2.0, 53 gallons/A
[10] = tested on: Colorado Potato Beetle (Leptinotarsa decemlineata); experiment: Control of Colorado potato beetle in potatoes; type: in vivo; conditions: adjuvant 0.88 lb/A where added; for Total Number of larvae from a six meter plot, 3 DAT L2 / Total Number of larvae from a six meter plot, 7 DAT L2: first and second instar; for Total Number of larvae from a six meter plot, 3 DAT L4 / Total Number of larvae from a six meter plot, 7 DAT L4: third and fourth instar
Description: The efficacy of Guthion™ (azinphosmethyl) alone and in combination with Dash HC® against the Colorado Potato Beetle (Leptinotarsa decemlineata) on potatoes. The test plot area was monitored for the presence of significant naturally occurring populations of the target pest, Colorado potato beetle (CPB). At the critical pest population threshold, treatments were applied to 6 meter, single row plots of the crop using a CO2 pressurized backpack sprayer.
Treatments were sprayed on potatoes in the early bloom stage to a mature population of the Colorado potato beetle. Larvae were evaluated in two classes: class one=first and second instar larvae, class two=third and fourth instar. Population counts were taken at 3 and 7 days after treatment. Trial results can be seen in Table 8.
Azinphosmethyl was applied at a rate of 0.375 lb ai/A. The recommended rate for CPB control. The insecticide was combined with water at a rate of 64.1 gal/acre. […].
Azinphosmethyl was applied at a rate of 0.30 lb ai/A. This is a 20% reduction below the recommended rate for CPB control. The insecticide was combined with water at a rate of 64.1 gal/Acre.
Azinphosmethyl was applied at a rate of 0.19 lb ai/A. This is ½ of the recommended label rate for CPB control. The insecticide was combined with water at a rate of 64.1 gal/acre.
Azinphosmethyl was applied at a rate of 0.375 lb ai/A. The recommended rate for CPB control. The insecticide was combined with water at a rate of 64.1 gal/a.
Azinphosmethyl was applied at a rate of 0.30 lb ai/A. This is a 20% reduction below the recommended rate for CPB control. The insecticide was combined with water at a rate of 64.1 gal/Acre. […] With the 64.1 gal of water used to deliver the mix, the resultant adjuvant concentration was 0.383%.
Azinphosmethyl was applied at a rate of 0.19 lb ai/A. This is ½ of the recommended label rate for CPB control. The insecticide was combined with water at a rate of 64.1 gal/acre. […] With the 64.1 gal of water used to deliver the mix, the resultant adjuvant concentration was 0.383%.

[11] = cotton, lb./A: acephate 0.20, dicrotophos 0.20, Dash 2.0
[12] = lb./A: chlorpyrifos + dimethoate 0.45, chlorpyrifos 0.94, Dash 2.0
[13] = chlorpyrifos 0.62 lb.ai/A, DASH 0.88 lb/a where added
[14] = chlorpyrifos 1.0 lb.ai/A, DASH 0.88 lb/a where added
[15] = chlorpyrifos 1.24 lb.ai/A alone (treatment B), control 2.3

Question: Which results are given for `COP(=O)(NC(C)=O)SC` (stereo not shown) [Acephate, O,S-dimethyl acetylphosphoramidothioate]?
Answer: # Whitefly adults counted, 7 days after treatment (Bandedwinged Whitefly [1]): 54; Whitefly adults % control, 3 days after treatment (Bandedwinged Whitefly [1]): (98) %; Whitefly adults % control, 7 days after treatment (Bandedwinged Whitefly [1]): (90) %; Whitefly adults % control, 3 days after treatment (Bandedwinged Whitefly [2]): (98) %; Thrips % control, 1 DAT (Thrips; [11]): (80) %; Thrips % control, 5 DAT (Thrips; [11]): (35) %; Thrips % control, 9 DAT (Thrips; [11]): (44) %; # Thrips/10 Plants, 0 DAT (Thrips; cotton, lb./A: acephate 0.20, dicrotophos 0.20, Dash 2.0, 15 gallons/A, control 252 ± 88): 174 ± 50; # Thrips/10 Plants, 9 DAT (Thrips; cotton, lb./A: acephate 0.20, dicrotophos 0.20, Dash 2.0, control 36 ± 32): 20 ± 18; # Thrips/10 Plants, 5 DAT (Thrips; cotton, lb./A: acephate 0.20, dicrotophos 0.20, Dash 2.0, control 65 ± 43): 42 ± 17; # Thrips/10 Plants, 1 DAT (Thrips; cotton, lb./A: acephate 0.20, dicrotophos 0.20, Dash 2.0, control 115 ± 50): 21 ± 9

Question: `CCOP(=S)(OCC)Oc1nc(Cl)c(Cl)cc1Cl` [Chlorpyrifos] was tested. Which “beet armyworm control, tankmixed with Dash versus applied alone at the same rates” value (Beet Armyworm [3]; chlorpyrifos at half-to-two-thirds the labeled rate) did it give?
Answer: The value was “effective and better beet armyworm control when takmixed with Dash than when applied alone”.

Question: And the “# Beet Armyworms 3 days after treatment” value (Beet Armyworm [3]; cotton, 13-ft row section, lb./A: chlorpyrifos + dimethoate 0.62, chlorpyrifos 0.50, Dash 2.0, 20 gallons/A, control 112)?
Answer: Its value is 73.

Question: What about the “Beet Armyworms % control 3 days after treatment” value (Beet Armyworm [3]; cotton, lb./A: chlorpyrifos + dimethoate 0.62, chlorpyrifos 0.50, Dash 2.0) of the same molecule?
Answer: The value was 38%.

Question: And the “% Bolls Damaged by Tobacco Budworm 3 DAT” value (Tobacco Budworm)?
Answer: Its value is 42%.

Question: And the “Beet Armyworm % control 4 DAT” value (Beet Armyworm [4]; [12])?
Answer: Its value is 66%.

Question: What about the “# Beet Armyworm 4 DAT” value (Beet Armyworm [4]; lb./A: chlorpyrifos + dimethoate 0.45, chlorpyrifos 0.94, Dash 2.0, 33 gallons/A, control 3) of the same molecule?
Answer: The value was 1.

Question: And the “Fall Armyworm % control 4 DAT” value (Fall Armyworm; [12])?
Answer: The value was 95%.

Question: What about the “# Fall Armyworm 4 DAT” value (Fall Armyworm; lb./A: chlorpyrifos + dimethoate 0.45, chlorpyrifos 0.94, Dash 2.0, 33 gallons/A, control 5) of the same molecule?
Answer: The value was 0.25.

Question: And the “# of larvae TRIPNI 4DAT” value ([5]; 3 plants per plot, chlorpyrifos 1.24 lb.ai/A alone (treatment B), control 1.7)?
Answer: Its value is 0.7.

Question: And the “# of larvae TRIPNI 4DAT” value [5, 13]?
Answer: The value was 2.7.

Question: And the “# of larvae TRIPNI 7DAT” value [5, 13]?
Answer: Its value is 0.7.

Question: And the “# of larvae TRIPNI 4DAT” value [5, 14]?
Answer: Its value is 1.3.

Question: What about the “# of larvae TRIPNI 7DAT” value [5, 14] of the same molecule?
Answer: Its value is 2.0.

Question: What about the “# of larvae TRIPNI 7DAT” value ([5]; chlorpyrifos 1.24 lb.ai/A alone (treatment B), control 0.3) of the same molecule?
Answer: The value was 0.7.

Question: What about the “# of larvae PLUTMA 4DAT” value [6, 13] of the same molecule?
Answer: Its value is 0.7.

Question: And the “# of larvae PLUTMA 7DAT” value [6, 13]?
Answer: Its value is 0.3.

Question: What about the “# of larvae PLUTMA 4DAT” value [6, 14] of the same molecule?
Answer: The value was 0.3.

Question: What about the “# of larvae PLUTMA 7DAT” value [6, 14] of the same molecule?
Answer: Its value is 0.

Question: And the “# of larvae PLUTMA 7DAT” value ([6]; chlorpyrifos 1.24 lb.ai/A alone (treatment B), control 1.7)?
Answer: The value was 1.0.

Question: What about the “# of larvae PLUTMA 4DAT” value [6, 15] of the same molecule?
Answer: Its value is 1.0.

Question: What about the “# of larvae PIERRA 4DAT” value [7, 13] of the same molecule?
Answer: Its value is 0.

Question: And the “# of larvae PIERRA 7DAT” value [7, 13]?
Answer: Its value is 0.3.

Question: And the “# of larvae PIERRA 4DAT” value [7, 14]?
Answer: The value was 0.

Question: And the “# of larvae PIERRA 7DAT” value [7, 14]?
Answer: Its value is 1.0.

Question: And the “# of larvae PIERRA 7DAT” value [7, 15]?
Answer: Its value is 1.3.

Question: What about the “# of larvae PIERRA 4DAT” value ([7]; chlorpyrifos 1.24 lb.ai/A alone (treatment B), control 4.7) of the same molecule?
Answer: Its value is 0.

Question: Which “# Thrips/10 Plants, 0 DAT” value (Thrips; in vivo) does the source give for `COP(=O)(OC)O/C(C)=C/C(=O)N(C)C` [Dicrotophos] here?
Answer: The value was 228 ± 108.

Question: What about the “# Thrips/10 Plants, 1 DAT” value (Thrips; in vivo) of the same molecule?
Answer: The value was 31 ± 12.

Question: And the “# Thrips/10 Plants, 5 DAT” value (Thrips; in vivo)?
Answer: Its value is 36 ± 28.

Question: And the “# Thrips/10 Plants, 9 DAT” value (Thrips; in vivo)?
Answer: The value was 35 ± 16.

Question: And the “Thrips % control, 1 DAT” value (Thrips; in vivo)?
Answer: Its value is “(73) %”.

Question: And the “Thrips % control, 5 DAT” value (Thrips; in vivo)?
Answer: The value was “(45) %”.

Question: And the “Thrips % control, 9 DAT” value (Thrips; in vivo)?
Answer: Its value is “(03) %”.

Question: Which results are given for `CNC(=O)CSP(=S)(OC)OC` [Dimethoate, O,O-dimethyl S-methylcarbamoylmethyl phosphorodithioate]?
Answer: aphid control on tank-mixing with the adjuvant (cotton aphid [8]; in vivo): Improvement in aphid control; Cotton aphid count 2 days after treatment (cotton aphid [8]; okra, 20 leaves per plot, lb./A: methyl parathion 0.5, dimethoate 0.25, chlorpyrifos 0.17 + dimethoate 0.14, Dash 2.0, 30 gallons/A, untreated 132): 19; Cotton aphid % control 2 days after treatment (cotton aphid [8]; okra, lb./A: methyl parathion 0.5, dimethoate 0.25, chlorpyrifos 0.17 + dimethoate 0.14, Dash 2.0, 30 gallons/A): 86%

Question: What does the source list for `COP(=S)(OC)Oc1ccc([N+](=O)[O-])cc1` [Methyl parathion, O,O-dimethyl O-(4-nitrophenyl)phosphorothioate]?
Answer: Cotton aphid count 2 days after treatment (cotton aphid [9]): 293; Cotton aphid % control 2 days after treatment (cotton aphid [9]): 77%; cotton aphid control, tank-mixed with the adjuvant versus applied alone (cotton aphid [9]; rates below the recommended maximum rate for aphid control): much higher when tank-mixed with the adjuvant than when applied alone; Cotton aphid % control 2 days after treatment (cotton aphid [8]; in vivo): 21 (84) %; Cotton aphid count 2 days after treatment (cotton aphid [8]; in vivo): 21 (84)

Question: `CC[S+]([O-])CCSP(=O)(OC)OC` (stereo not shown) [Oxydemeton-methyl] was tested. Which “Cotton aphid count 2 days after treatment” value (cotton aphid [9]) did it give?
Answer: Its value is 74.

Question: And the “Cotton aphid % control 2 days after treatment” value (cotton aphid [9])?
Answer: Its value is 94%.

Question: And the “aphid control on tank-mixing with the adjuvant” value (cotton aphid [9]; in vivo)?
Answer: The value was “Improvement in aphid control”.

Question: `COP(=S)(OC)SCn1nnc2ccccc2c1=O` [azinphosmethyl] was tested. Which “Total Number of larvae from a six meter plot, 3 DAT L2” value (shortened to “Total Number of larvae … 3 DAT L2”) ([10]; azinphosmethyl 0.19 lb ai/A) did it give?
Answer: Its value is 4.0.

Question: What about the “Total Number of larvae from a six meter plot, 7 DAT L2” value (“Total Number of larvae … 7 DAT L2” for short) ([10]; azinphosmethyl 0.19 lb ai/A) of the same molecule?
Answer: The value was 1.3.

Question: And the “Total Number of larvae from a six meter plot, 3 DAT L4” value (“Total Number of larvae … 3 DAT L4” below) ([10]; azinphosmethyl 0.19 lb ai/A)?
Answer: Its value is 11.7.

Question: And the “Total Number of larvae from a six meter plot, 7 DAT L4” value (shortened to “Total Number of larvae … 7 DAT L4”) ([10]; azinphosmethyl 0.19 lb ai/A)?
Answer: Its value is 6.0.

Question: What about the “Total Number of larvae … 3 DAT L2” value ([10]; azinphosmethyl 0.30 lb ai/A) of the same molecule?
Answer: The value was 5.0.

Question: And the “Total Number of larvae … 7 DAT L2” value ([10]; azinphosmethyl 0.30 lb ai/A)?
Answer: The value was 1.0.

Question: And the “Total Number of larvae … 3 DAT L4” value ([10]; azinphosmethyl 0.30 lb ai/A)?
Answer: The value was 7.7.

Question: What about the “Total Number of larvae … 7 DAT L4” value ([10]; azinphosmethyl 0.30 lb ai/A) of the same molecule?
Answer: Its value is 3.0.

Question: What about the “Total Number of larvae … 7 DAT L2” value ([10]; azinphosmethyl 0.375 lb ai/A, control 3.0) of the same molecule?
Answer: Its value is 6.0.

Question: And the “Total Number of larvae … 3 DAT L2” value ([10]; azinphosmethyl 0.375 lb ai/A, control 29.7)?
Answer: The value was 0.7.

Question: What about the “Total Number of larvae … 7 DAT L4” value ([10]; azinphosmethyl 0.375 lb ai/A, control 24.3) of the same molecule?
Answer: The value was 5.0.

Question: And the “Total Number of larvae … 3 DAT L4” value ([10]; azinphosmethyl 0.375 lb ai/A, control 79.3)?
Answer: Its value is 12.3.
